Laboratory results as given in patent publication US8957069B2, “Benzofuran derivatives” (Takeda Pharmaceutical Company Limited, priority 2009, dated 2015).

Tested on: rat mixed glial culture
Assay: Activity of promoting neuronal neogenesis in rat mixed glial culture
Format: cell-based
Details: compound 1 μM + rhIGF-1 100 ng/ml, three days; anti-class III beta-tubulin, absorbance at 450 nm; control (rhIGF-1 only) = 100%
Description: From a three-day old SD rat, hippocampus and cerebral cortex were removed. By using a kit of dispersion liquid for neuronal cells (MB-X9901, manufactured by SUMITOMO BAKELITE CO., LTD.), cell suspension was prepared and then seeded on a 96-well plate coated with collagen Type I (4860-010, manufactured by Asahi Techno Glass Co., Ltd.) to 10^5 cells/well. Under the condition of 37° C. and 5% CO2, the cells were cultured for four days in a growth medium (D-MEM/F12 with 10% FBS, comprising PS).
After culturing, the medium was exchanged with a medium for differentiation (D-MEM/F12, comprising PS), added with rhIGF-1 (R&D Systems, 291-G1-250, final concentration of 100 ng/ml) and the compound to 1 μM, followed by further culture for three days. […] By using the plate reader (Labsystems Multiskan BICHROMATIC), absorbance at 450 nm was measured.
The absorbance for the case in which no compound is added (i.e., control, rhIGF-1 only) was 100%, and the increase ratio of the absorbance for the compound addition (i.e., compound+rhIGF-1) compared to the control was obtained as % control. Activity of the each compound for promoting neuronal differentiation that is measured according to the above method is summarized in Table 9 and Table 10.

COc1ccc(N2CCN(c3c(C)c(C)c4c(c3C)CC(C)(CO)O4)CC2)cc1 (single isomer, unassigned; (+)) [Example 144, (+)-{5-[4-(4-methoxyphenyl)piperazin-1-yl]-2,4,6,7-tetramethyl-2,3-dihydro-1-benzofuran-2-yl}methanol]
Increase Ratio of the Absorbance (% control): >500 % control
